Results on 21 compounds are retold here after patent publication US8173808B2, “Substituted naphthalenyl-pyrimidine compounds” (ArQule, Inc., priority 2009, dated 2012).

Structures are written as SMILES.

The test system of assay [1] is DLD-1. In words: MTS assay, DLD-1. To be noted: Homo sapiens, 72 hours, 1 Percent FBS. It is filed as cell-based. The protocol:
(§1) Cells were maintained at 37° C., 5% CO2 in DMEM media supplemented with 1% fetal bovine serum, penicillin/streptomycin and fungizone (Invitrogen). Cells were seeded into 96-well tissue culture plates at 3000 per well and cultured at 37° C. for 18 hours. Test compounds were dissolved and diluted to 300× in DMSO then diluted 1:40 in DMEM. Cells were incubated with test compounds for 72 hours followed by incubation with tetrazolium compound (3-(4,5-dimethylthiazol-2-yl)-5-(3-carboxymethoxyphenyl)-2-(4-sulfophenyl)-2H-tetrazolium, inner salt; MTS) and the electron coupling reagent, phenazine methosulfate (PMS) for 4 hours. […] The ability of compounds to inhibit cell growth in this assay is correlated with the reduction of dehydrogenase enzyme activity found in metabolically active cells. The measurement of the absorbance of the formazan was assessed using a Victor (Perkin Elmer) microplate reader at 492 nm. The calculated IC50 value is the concentration of the test compound that causes a 50% decrease in the absorbance.

Assay [2] deals with MDA-MB-231. In words: MTS assay, MDA-MB-231. It is filed as cell-based. To be noted: Homo sapiens, 72 hours, 1 Percent FBS. The procedure:
as §1

Take `CNc1nccc(-c2cc(NC(=O)CNCCN3CCOCC3)c3cc(OC)ccc3c2)n1` [Compound 78, N-{7-methoxy-3-[2-(methylamino)pyrimidin-4-yl]-1-naphthyl}-N~2~-(2-morpholin-4-ylethyl)glycinamide]: the inhibition at 10 µM was determined as 55% in assay [1] and 48% in assay [2].
As to `CNc1nccc(-c2cc(NC3CCN(c4ccc5ccccc5n4)CC3)c3cc(OC)ccc3c2)n1` [Compound 154, 4-{6-methoxy-4-[(1-quinolin-2-ylpiperidin-4-yl)amino]-2-naphthyl}-N-methylpyrimidin-2-amine], the values for the inhibition at 10 µM in assay [1] and in assay [2] were 82% and 41%, respectively.
Taken in the same sequence, the figures for `COc1ccc2cc(-c3ccnc(NCc4cccnc4)n3)cc(N3CCNCC3)c2c1` [Compound 130, 4-(6-methoxy-4-piperazin-1-yl-2-naphthyl)-N-(pyridin-3-ylmethyl)pyrimidin-2-amine] were 97% and 76%.
For the compound `COCCNc1nccc(-c2cc(N3CCOCC3)c3cc(OC)ccc3c2)n1` [Compound 23, N-(2-methoxyethyl)-4-(6-methoxy-4-morpholin-4-yl-2-naphthyl)pyrimidin-2-amine], the inhibition at 10 µM in assay [1] stood at 98%; in assay [2] it was 91%.
As to `CNc1nccc(-c2cc(NC(=O)CN3CCN(CCOC)CC3)c3cc(OC)ccc3c2)n1` [Compound 59, 2-[4-(2-methoxyethyl)piperazin-1-yl]-N-{7-methoxy-3-[2-(methylamino)pyrimidin-4-yl]-1-naphthyl}acetamide], the inhibition at 10 µM in assay [1] is 97%; in assay [2], 98%.
Taken in the same sequence, the figures for `COc1ccc2cc(-c3ccnc(NCc4cncn4C)n3)cc(NC(=O)OC(C)(C)C)c2c1` [Compound 93, tert-butyl [7-methoxy-3-(2-{[(1-methyl-1H-imidazol-5-yl)methyl]amino}pyrimidin-4-yl)-1-naphthyl]carbamate] were 96% and 72%.
Regarding `CNc1nccc(-c2cc(NC(=O)CNCC(C)(C)CO)c3cc(OC)ccc3c2)n1` [Compound 50, N~2~-(3-hydroxy-2,2-dimethylpropyl)-N-{7-methoxy-3-[2-(methylamino)pyrimidin-4-yl]-1-naphthyl}glycinamide], the inhibition at 10 µM was 97% in assay [1] and 94% in assay [2].
Taken in the same sequence, the figures for `CNc1nccc(-c2cc(NC(=O)CN3CCN(c4ncncn4)CC3)c3cc(OC)ccc3c2)n1` [Compound 40, N-{7-methoxy-3-[2-(methylamino)pyrimidin-4-yl]-1-naphthyl}-2-[4-(1,3,5-triazin-2-yl)piperazin-1-yl]acetamide] were 54% and 40%.
For the compound `COc1ccc2cc(-c3ccnc(NCc4ccc(OC)c(OC)c4)n3)cc(N3CCNCC3)c2c1` [Compound 121, N-(3,4-dimethoxybenzyl)-4-(6-methoxy-4-piperazin-1-yl-2-naphthyl)pyrimidin-2-amine], the values for the inhibition at 10 µM in assay [1] and in assay [2] were 97% and 99%, respectively.
Taken in the same sequence, the figures for `COc1ccc2cc(-c3ccnc(NCCc4ccccc4OC)n3)cc(N3CCNCC3)c2c1` [Compound 124, N-[2-(2-methoxyphenyl)ethyl]-4-(6-methoxy-4-piperazin-1-yl-2-naphthyl)pyrimidin-2-amine] were 97% and 98%.
Taken in the same sequence, the figures for `CNc1nccc(-c2cc(NC3CCN(c4cc(Cl)ncn4)CC3)c3cc(OC)ccc3c2)n1` [Compound 159, 4-(4-{[1-(6-chloropyrimidin-4-yl)piperidin-4-yl]amino}-6-methoxy-2-naphthyl)-N-methylpyrimidin-2-amine] were 93% and 42%.
For `CNc1nccc(-c2cc(NC(=O)CN3CCN(c4nccc(C(F)(F)F)n4)CC3)c3cc(OC)ccc3c2)n1` [Compound 75, N-{7-methoxy-3-[2-(methylamino)pyrimidin-4-yl]-1-naphthyl}-2-{4-[4-(trifluoromethyl)pyrimidin-2-yl]piperazin-1-yl}acetamide], the inhibition at 10 µM worked out at 97% in assay [1] and 98% in assay [2].
Taken in the same sequence, the figures for `CNc1nccc(-c2cc(NC(=O)CN3CCN(CCn4cccc4)CC3)c3cc(OC)ccc3c2)n1` [Compound 82, N-{7-methoxy-3-[2-(methylamino)pyrimidin-4-yl]-1-naphthyl}-2-{4-[2-(1H-pyrrol-1-yl)ethyl]piperazin-1-yl}acetamide] were 96% and 80%.
Taken in the same sequence, the figures for `COc1ccc2cc(-c3ccnc(NCCN(C)C)n3)cc(NC(=O)OC(C)(C)C)c2c1` [Compound 86, tert-butyl [3-(2-{[2-(dimethylamino)ethyl]amino}pyrimidin-4-yl)-7-methoxy-1-naphthyl]carbamate] were 31% and 67%.
Taken in the same sequence, the figures for `COc1ccc2cc(-c3ccnc(NCCc4ccc(OC)c(OC)c4)n3)cc(N3CCOCC3)c2c1` [Compound 18, N-[2-(3,4-dimethoxyphenyl)ethyl]-4-(6-methoxy-4-morpholin-4-yl-2-naphthyl)pyrimidin-2-amine] were 88% and 31%.
As to `CNc1nccc(-c2cc(NC(=O)CN3CCN(CCN4CCCC4)CC3)c3cc(OC)ccc3c2)n1` [Compound 64, N-{7-methoxy-3-[2-(methylamino)pyrimidin-4-yl]-1-naphthyl}-2-[4-(2-pyrrolidin-1-ylethyl)piperazin-1-yl]acetamide], the results for the inhibition at 10 µM in assay [1] and in assay [2] were 89% and 71%, respectively.
As to `COc1ccc2cc(-c3ccnc(NCCN4CCCC4)n3)cc(N3CCOCC3)c2c1` [Compound 29, 4-(6-methoxy-4-morpholin-4-yl-2-naphthyl)-N-(2-pyrrolidin-1-ylethyl)pyrimidin-2-amine], the results for the inhibition at 10 µM in assay [1] and in assay [2] were 81% and 76%, respectively.
Taken in the same sequence, the figures for `CNc1nccc(-c2cc(NC3CCN(c4ncccc4C(=O)OC)CC3)c3cc(OC)ccc3c2)n1` [Compound 168, methyl 2-[4-({7-methoxy-3-[2-(methylamino)pyrimidin-4-yl]-1-naphthyl}amino)piperidin-1-yl]nicotinate] were 98% and 99%.
`CCN(CC)CCCN1CCN(CC(=O)Nc2cc(-c3ccnc(NC)n3)cc3ccc(OC)cc23)CC1` [Compound 36, 2-{4-[3-(diethylamino)propyl]piperazin-1-yl}-N-{7-methoxy-3-[2-(methylamino)pyrimidin-4-yl]-1-naphthyl}acetamide]: the inhibition at 10 µM is 87% in assay [1] and 92% in assay [2].
For the compound `CNc1nccc(-c2cc(NC(=O)CN3CCN(CC(=O)N(C)c4ccccc4)CC3)c3cc(OC)ccc3c2)n1` [Compound 79, 2-{4-[2-({7-methoxy-3-[2-(methylamino)pyrimidin-4-yl]-1-naphthyl}amino)-2-oxoethyl]piperazin-1-yl}-N-methyl-N-phenylacetamide], the values for the inhibition at 10 µM in assay [1] and in assay [2] were 98% and 99%, respectively.
Taken in the same sequence, the figures for `CCN1CCCC(Nc2nccc(-c3cc(NC(=O)OC(C)(C)C)c4cc(OC)ccc4c3)n2)C1` (stereo not drawn) [Compound 91, tert-butyl (3-{2-[(1-ethylpiperidin-3-yl)amino]pyrimidin-4-yl}-7-methoxy-1-naphthyl)carbamate] were 97% and 85%.
